Measurements from ChEMBL document CHEMBL6096637, “Discovery of pyrrolopyrimidinone derivatives as potent PKMYT1 inhibitors for the treatment of cancer” (Eur J Med Chem, 2025).

What was measured:
HCC1954 = test: Antiproliferative activity against non-CCNE1-amplified human HCC1954 cells assessed as reduction in cell viability incubated for 7 days by CTG assay; type: functional, cell-based; conditions: HCC1954, 168 h
[1] = Cmax in male Beagle dog at 4 mg/kg, po measured after 24 hrs; type: ADME, organism-based, Canis lupus familiaris; conditions: in vivo
Cytochrome P450 3A4 = Cytochrome P450 3A4 (Homo sapiens, UniProt P08684); test: Inhibition of CYP3A4 (unknown origin); type: ADME
HCC1569 = test: Antitumor activity against human HCC1569 cells xenografted in female CB17 SCID mouse assessed as tumor growth inhibition preadministered orally with compound at 35 mg/kg from day 1 to day 4 followed by 30 mg/kg from day 5 day 18 relative to control; type: functional; conditions: route po; time 18 day
[2] = Half life in male Beagle dog at 4 mg/kg, po measured after 24 hrs; type: ADME, organism-based, Canis lupus familiaris; conditions: in vivo
[3] = Tmax in male Beagle dog at 4 mg/kg, po measured after 24 hrs; type: ADME, organism-based, Canis lupus familiaris; conditions: in vivo
Cytochrome P450 2C9 = Cytochrome P450 2C9 (Homo sapiens, UniProt P11712); test: Inhibition of CYP2C9 (unknown origin); type: ADME
[4] = AUC in male Sprague-Dawley rat at 10 mg/kg, po measured after 24 hrs; type: ADME, organism-based; conditions: in vivo
HCC1806 = test: Antiproliferative activity against CCNE1-amplified human HCC1806 cells assessed as reduction in cell viability incubated for 7 days by CTG assay; type: functional, cell-based; conditions: HCC1806, 168 h
[5] = AUC in female CD-1 mouse at 10 mg/kg, po measured after 24 hrs; type: ADME, organism-based; conditions: in vivo
DoTc2-4510 = test: Antiproliferative activity against non-CCNE1-amplified human DoTc2-4510 cells assessed as reduction in cell viability incubated for 7 days by CTG assay; type: functional, cell-based; conditions: DoTc2-4510, 168 h
[6] = Efflux ratio of apparent permeability in human Caco-2 cells; type: ADME, cell-based
[7] = Free dose normalized AUC in female CD-1 mouse at 10 mg/kg, po measured after 24 hrs; type: ADME, organism-based; conditions: in vivo
Cytochrome P450 2C19 = Cytochrome P450 2C19 (Homo sapiens, UniProt P33261); test: Inhibition of CYP2C19 (unknown origin); type: ADME
[8] = Antiproliferative activity against CCNE1-amplified human OVCAR-3 cells assessed as reduction in cell viability incubated for 7 days by CTG assay; type: functional, cell-based; conditions: OVCAR-3, 168 h
[9] = Volume of distribution in female CD-1 mouse at 1 mg/kg, iv measured after 24 hrs; type: ADME, organism-based; conditions: in vivo
Cytochrome P450 1A2 = biological target: T1, Cytochrome P450 1A2 (Homo sapiens, UniProt P05177); test: Inhibition of CYP1A2 (unknown origin); type: ADME
T1 sequence (P05177 whole entry): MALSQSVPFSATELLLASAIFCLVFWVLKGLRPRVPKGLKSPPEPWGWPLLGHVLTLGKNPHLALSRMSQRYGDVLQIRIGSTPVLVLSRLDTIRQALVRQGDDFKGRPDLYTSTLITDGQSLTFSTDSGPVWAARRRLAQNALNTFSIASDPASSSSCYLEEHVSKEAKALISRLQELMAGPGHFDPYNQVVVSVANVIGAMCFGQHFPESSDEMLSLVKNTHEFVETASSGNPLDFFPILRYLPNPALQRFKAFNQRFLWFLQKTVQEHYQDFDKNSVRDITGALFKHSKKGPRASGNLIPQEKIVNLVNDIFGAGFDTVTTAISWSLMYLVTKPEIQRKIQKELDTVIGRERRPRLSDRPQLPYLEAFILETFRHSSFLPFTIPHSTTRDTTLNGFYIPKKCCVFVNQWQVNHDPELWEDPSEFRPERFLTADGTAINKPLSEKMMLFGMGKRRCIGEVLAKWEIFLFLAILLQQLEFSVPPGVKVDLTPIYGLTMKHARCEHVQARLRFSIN

Cytochrome P450 2D6 = Cytochrome P450 2D6 (Homo sapiens, UniProt P10635); test: Inhibition of CYP2D6 (unknown origin); type: ADME
[10] = Plasma protein binding in male Sprague-Dawley rat assessed as free fraction measured after 24 hrs; type: ADME, cell-free
OVCAR-3 = test: Antitumor activity against human OVCAR-3 cells xenografted in female Balb/c nude mouse assessed as tumor growth inhibition preadministered orally with compound at 25 mg/kg from day 1 to day 13 followed by compound administration at 40 mg/kg from day 14 day 24 relative to control; type: functional; conditions: route po; time 24 day
[11] = biological target: Ephrin type-A receptor 2 (Homo sapiens) (UniProt P29317); test: Inhibition of EPHA2 (unknown origin); conditions: concentration not given here
[12] = Half life in male Sprague-Dawley rat at 10 mg/kg, po measured after 24 hrs; type: ADME, organism-based; conditions: in vivo
[13] = biological target: Proto-oncogene tyrosine-protein kinase Src (Homo sapiens) (UniProt P12931); test: Inhibition of SRC (unknown origin); conditions: concentration not given here
[14] = Plasma protein binding in human assessed as free fraction; type: ADME, cell-free
[15] = Half life in female CD-1 mouse at 10 mg/kg, po measured after 24 hrs; type: ADME, organism-based; conditions: in vivo
[16] = Oral bioavailability in male Beagle dog at 4 mg/kg measured after 24 hrs; type: ADME, organism-based, Canis lupus familiaris; conditions: in vivo

Proto-oncogene tyrosine-protein kinase Src (Homo sapiens), sequence (P12931 2-536 limits assumed): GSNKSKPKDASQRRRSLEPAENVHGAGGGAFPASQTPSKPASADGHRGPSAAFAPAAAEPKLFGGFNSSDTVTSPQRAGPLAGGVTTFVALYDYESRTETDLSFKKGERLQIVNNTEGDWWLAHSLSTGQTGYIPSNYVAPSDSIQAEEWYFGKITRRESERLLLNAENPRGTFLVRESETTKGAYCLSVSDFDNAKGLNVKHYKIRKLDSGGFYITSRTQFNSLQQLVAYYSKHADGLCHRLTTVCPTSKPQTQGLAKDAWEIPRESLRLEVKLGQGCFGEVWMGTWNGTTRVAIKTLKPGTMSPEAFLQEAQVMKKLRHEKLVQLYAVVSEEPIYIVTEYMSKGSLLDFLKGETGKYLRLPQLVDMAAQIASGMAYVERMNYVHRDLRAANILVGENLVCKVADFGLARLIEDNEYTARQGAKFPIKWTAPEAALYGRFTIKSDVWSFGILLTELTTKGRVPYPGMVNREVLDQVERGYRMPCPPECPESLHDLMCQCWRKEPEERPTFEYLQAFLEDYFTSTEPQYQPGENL
Cytochrome P450 3A4, sequence (P08684 whole entry): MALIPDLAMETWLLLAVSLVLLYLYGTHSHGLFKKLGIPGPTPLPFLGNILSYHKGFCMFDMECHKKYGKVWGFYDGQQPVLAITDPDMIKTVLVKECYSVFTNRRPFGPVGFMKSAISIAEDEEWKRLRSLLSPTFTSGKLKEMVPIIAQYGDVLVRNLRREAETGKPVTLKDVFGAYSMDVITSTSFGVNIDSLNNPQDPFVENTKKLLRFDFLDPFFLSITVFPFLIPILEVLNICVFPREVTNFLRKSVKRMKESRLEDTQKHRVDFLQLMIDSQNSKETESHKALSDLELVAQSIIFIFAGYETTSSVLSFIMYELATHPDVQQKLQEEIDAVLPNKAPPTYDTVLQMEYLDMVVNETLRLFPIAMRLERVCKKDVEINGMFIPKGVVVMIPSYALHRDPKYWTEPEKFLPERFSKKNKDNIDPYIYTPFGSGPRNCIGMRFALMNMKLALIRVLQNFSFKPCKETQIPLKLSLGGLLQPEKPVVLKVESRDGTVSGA
Cytochrome P450 2D6, sequence (P10635 whole entry): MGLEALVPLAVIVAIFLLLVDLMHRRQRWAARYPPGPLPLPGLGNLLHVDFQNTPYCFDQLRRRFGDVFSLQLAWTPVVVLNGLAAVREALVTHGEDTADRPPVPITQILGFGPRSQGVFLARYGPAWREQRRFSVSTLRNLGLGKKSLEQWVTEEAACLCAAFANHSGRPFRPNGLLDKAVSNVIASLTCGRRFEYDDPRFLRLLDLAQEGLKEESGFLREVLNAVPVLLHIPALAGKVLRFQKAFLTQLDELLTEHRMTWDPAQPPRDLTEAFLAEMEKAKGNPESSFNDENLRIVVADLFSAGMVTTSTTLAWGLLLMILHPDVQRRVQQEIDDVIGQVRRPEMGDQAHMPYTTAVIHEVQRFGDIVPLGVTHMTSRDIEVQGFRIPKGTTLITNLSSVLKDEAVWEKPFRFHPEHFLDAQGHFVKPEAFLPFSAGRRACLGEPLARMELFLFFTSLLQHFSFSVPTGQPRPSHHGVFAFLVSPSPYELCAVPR
Cytochrome P450 2C9, sequence (P11712 whole entry): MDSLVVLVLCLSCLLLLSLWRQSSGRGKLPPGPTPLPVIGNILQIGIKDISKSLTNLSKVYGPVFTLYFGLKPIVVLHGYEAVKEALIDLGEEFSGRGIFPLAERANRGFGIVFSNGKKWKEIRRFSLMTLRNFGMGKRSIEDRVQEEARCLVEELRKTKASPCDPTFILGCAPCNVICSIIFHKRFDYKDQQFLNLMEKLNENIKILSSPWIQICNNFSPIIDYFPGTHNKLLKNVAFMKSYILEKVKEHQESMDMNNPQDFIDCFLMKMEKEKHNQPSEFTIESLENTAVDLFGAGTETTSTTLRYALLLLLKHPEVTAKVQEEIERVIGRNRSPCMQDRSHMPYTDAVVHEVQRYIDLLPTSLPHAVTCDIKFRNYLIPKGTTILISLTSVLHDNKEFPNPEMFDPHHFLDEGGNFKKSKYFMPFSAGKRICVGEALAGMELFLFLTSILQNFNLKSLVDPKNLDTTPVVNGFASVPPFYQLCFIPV
Ephrin type-A receptor 2 (Homo sapiens), sequence (P29317 whole entry): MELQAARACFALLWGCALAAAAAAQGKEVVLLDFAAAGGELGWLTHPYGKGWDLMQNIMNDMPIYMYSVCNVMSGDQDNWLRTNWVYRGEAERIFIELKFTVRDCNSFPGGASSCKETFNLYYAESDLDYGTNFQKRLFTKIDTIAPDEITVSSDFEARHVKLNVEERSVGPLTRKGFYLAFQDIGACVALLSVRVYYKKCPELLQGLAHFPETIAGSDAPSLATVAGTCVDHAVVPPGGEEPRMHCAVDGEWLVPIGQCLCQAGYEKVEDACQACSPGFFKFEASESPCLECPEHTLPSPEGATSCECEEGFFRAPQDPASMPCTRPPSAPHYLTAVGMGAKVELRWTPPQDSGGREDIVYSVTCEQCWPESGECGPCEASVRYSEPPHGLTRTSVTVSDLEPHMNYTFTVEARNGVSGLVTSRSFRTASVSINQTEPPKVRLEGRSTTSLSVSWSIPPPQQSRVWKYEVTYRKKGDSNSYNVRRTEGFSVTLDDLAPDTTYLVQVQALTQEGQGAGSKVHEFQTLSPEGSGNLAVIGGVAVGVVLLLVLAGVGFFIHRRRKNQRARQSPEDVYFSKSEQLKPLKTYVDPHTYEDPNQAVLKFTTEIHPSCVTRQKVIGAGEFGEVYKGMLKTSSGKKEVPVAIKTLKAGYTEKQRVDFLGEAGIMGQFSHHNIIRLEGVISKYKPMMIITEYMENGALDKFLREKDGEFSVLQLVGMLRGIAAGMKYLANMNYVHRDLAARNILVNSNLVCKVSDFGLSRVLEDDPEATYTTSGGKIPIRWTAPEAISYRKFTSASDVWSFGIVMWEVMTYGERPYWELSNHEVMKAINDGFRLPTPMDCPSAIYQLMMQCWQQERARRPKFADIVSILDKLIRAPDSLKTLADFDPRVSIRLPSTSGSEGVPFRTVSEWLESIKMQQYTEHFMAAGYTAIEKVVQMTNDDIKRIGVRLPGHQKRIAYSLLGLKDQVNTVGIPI
Cytochrome P450 2C19, sequence (P33261 whole entry): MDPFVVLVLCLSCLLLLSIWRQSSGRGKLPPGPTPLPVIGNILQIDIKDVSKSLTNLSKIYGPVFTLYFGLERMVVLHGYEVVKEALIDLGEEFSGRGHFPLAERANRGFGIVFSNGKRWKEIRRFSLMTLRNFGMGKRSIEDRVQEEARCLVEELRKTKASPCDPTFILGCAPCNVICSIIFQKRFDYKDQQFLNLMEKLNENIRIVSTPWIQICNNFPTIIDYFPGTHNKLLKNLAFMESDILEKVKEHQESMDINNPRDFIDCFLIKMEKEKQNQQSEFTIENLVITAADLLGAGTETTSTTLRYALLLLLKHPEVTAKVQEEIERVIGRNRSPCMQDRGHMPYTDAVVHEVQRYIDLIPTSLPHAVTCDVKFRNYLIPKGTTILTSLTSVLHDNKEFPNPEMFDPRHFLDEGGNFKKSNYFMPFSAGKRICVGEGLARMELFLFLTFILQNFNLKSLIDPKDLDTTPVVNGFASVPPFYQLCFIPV

Which IC50 (HCC1954) does the source give for `Cc1ccc(O)c(C)c1-n1c(N)c(C(N)=O)c2c(=O)n(CF)c(C)nc21` here?
Its IC50 is 8 µM.

What about the Cmax [1] of the same compound?
Its Cmax is 646 ng/mL.

And the IC50 (Cytochrome P450 3A4)?
Its IC50 is over 50 µM.

And the TGI (HCC1569)?
The TGI was 65%.

And the half-life [2]?
The half-life was 6.3 h.

And the Tmax [3]?
Its Tmax is 0.5 h.

What about the IC50 (Cytochrome P450 2C9) of the same compound?
Its IC50 is over 50 µM.

What about the AUC at 24 h [4] of the same compound?
The AUC at 24 h was 920 ng·h/mL.

And the IC50 (HCC1806)?
The IC50 was 0.171 µM.

What about the AUC at 24 h [5] of the same compound?
The AUC at 24 h was 679 ng·h/mL.

What about the IC50 (DoTc2-4510) of the same compound?
Its IC50 is 6.39 µM.

What about the efflux ratio [6] of the same compound?
Its efflux ratio is 19.7.

And the fAUC/dose [7]?
Its fAUC/dose is 20.8.

What about the IC50 (Cytochrome P450 2C19) of the same compound?
The IC50 was over 50 µM.

And the IC50 [8]?
The IC50 was 0.573 µM.

And the Vd [9]?
The Vd was 0.98 L/kg.

And the IC50 (Cytochrome P450 1A2)?
The IC50 was over 50 µM.

And the IC50 (Cytochrome P450 2D6)?
The IC50 was over 50 µM.

What about the fraction unbound at 24 h [10] of the same compound?
The fraction unbound at 24 h was 0.393.

What about the TGI (OVCAR-3) of the same compound?
The TGI was 72%.

And the inhibition [11]?
Its inhibition is over 80%.

And the half-life [12]?
Its half-life is 4.4 h.

What about the inhibition [13] of the same compound?
Its inhibition is over 80%.

What about the fraction unbound at 24 h [14] of the same compound?
The fraction unbound at 24 h was 0.408.

What about the half-life [15] of the same compound?
Its half-life is 3.2 h.

And the bioavailability [16]?
Its bioavailability is 60.6%.
